One experiment has as its target T1, GIRK2 (Homo sapiens, UniProt P48051).
T1 construct: expressed in transfected cells; host or cells: HEK-293
T1 sequence (P48051 1-423): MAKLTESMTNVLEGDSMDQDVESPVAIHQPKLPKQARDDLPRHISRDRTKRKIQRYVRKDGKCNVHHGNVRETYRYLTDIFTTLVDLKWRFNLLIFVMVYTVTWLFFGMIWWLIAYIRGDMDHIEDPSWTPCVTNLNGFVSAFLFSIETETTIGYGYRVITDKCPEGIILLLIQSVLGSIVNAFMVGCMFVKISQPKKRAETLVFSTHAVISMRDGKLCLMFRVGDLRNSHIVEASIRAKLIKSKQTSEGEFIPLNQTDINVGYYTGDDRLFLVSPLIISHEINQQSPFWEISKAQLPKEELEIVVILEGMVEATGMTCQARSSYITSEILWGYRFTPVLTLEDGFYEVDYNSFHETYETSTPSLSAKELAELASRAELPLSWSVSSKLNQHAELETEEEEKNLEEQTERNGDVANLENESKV
Briefly: Whole-cell voltage-clamp, GIRK2-expressing HEK-293 cells. The experiment is classed as cell-based. As to conditions: cell line GIRK2. An excerpt:
Cell Line Construction and Cell Culture. HEK-293 cells co-expressing human GIRK1/2 and rat mGlu8 were generated as previously described (Niswender et al., 2008). A HEK-293 cell line (ATCC, Manassas, Va.) expressing human GIRK1 and human GIRK2 was constructed by transfecting HEK-293 cells with GIRK1 and GIRK2 (Origene, Rockville, Md.) cloned into the pBudCE4.1 vector (Life Technologies, Carlsbad, Calif.) using FuGene 6 (Promega, Madison, Wis.) transfection reagent. […]
A single-cell suspension of HEK-293 cells stably transfected with the appropriate ion channels were plated into TC-treated 35 mm polystyrene dishes at ˜15% confluence and incubated overnight in a 5% CO2 cell culture incubator at 37° C. […] Whole cell currents were recorded in 20K extracellular solution at −70 mV using a Pico 1 amplifier (Tecella, Foothill Ranch, Calif.) controlled by WINWCP 4.X (University of Strathclyde, Glasgow, Scotland, UK). […] One day after transfection, cells were plate into 35 mm polystyrene dishes, incubated and recorded as described above. […]
Voltage-clamp data were analyzed by converting current amplitudes to current density by dividing by each cell's membrane capacitance estimated from capacitance compensation. […]

The target in another experiment is T2, Transporter, SERT (Homo sapiens, UniProt P31645).
T2 construct: Ricerca (contract panel)
T2 sequence (P31645 whole entry): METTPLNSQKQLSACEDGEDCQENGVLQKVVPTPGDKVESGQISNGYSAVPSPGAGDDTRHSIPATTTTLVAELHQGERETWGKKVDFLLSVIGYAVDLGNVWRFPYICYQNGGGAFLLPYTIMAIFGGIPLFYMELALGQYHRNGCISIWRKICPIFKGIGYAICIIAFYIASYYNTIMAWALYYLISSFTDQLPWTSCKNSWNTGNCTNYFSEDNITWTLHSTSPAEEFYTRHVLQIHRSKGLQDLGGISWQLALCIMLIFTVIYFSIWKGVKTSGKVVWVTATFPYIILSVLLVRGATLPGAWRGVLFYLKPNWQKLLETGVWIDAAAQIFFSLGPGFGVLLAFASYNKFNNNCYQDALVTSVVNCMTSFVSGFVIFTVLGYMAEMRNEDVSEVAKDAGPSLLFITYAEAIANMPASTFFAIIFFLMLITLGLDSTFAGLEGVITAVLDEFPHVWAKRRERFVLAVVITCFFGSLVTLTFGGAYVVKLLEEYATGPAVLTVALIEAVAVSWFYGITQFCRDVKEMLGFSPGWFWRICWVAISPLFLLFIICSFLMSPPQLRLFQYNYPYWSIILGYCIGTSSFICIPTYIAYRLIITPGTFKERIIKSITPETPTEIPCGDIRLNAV
Put plainly: Radioligand displacement (Ricerca). It counts as binding.

As for `Cc1cc(NC(=O)Nc2ccc(F)c(F)c2)n(-c2ccccc2)n1` [VU0456810, 1-(3,4-difluorophenyl)-3-(3-methyl-1-phenyl-1H-pyrazol-5-yl)urea], the “EC50 Voltage Clamp” value at GIRK2 is “Inactive”. Besides, the inhibition at 10 µM on Transporter, SERT was -1%.

As a reminder, the inhibition is the relative decrease from the control value, in per cent.
